Results: patent EP3797781A1, “USE OF EC-7072 AND SYNERGIC COMPOSITIONS THEREOF IN TREATMENT OF CHRONIC LYMPHOCYTIC LEUKEMIA” (priority 2019, dated 2021)

Experiments:
[1] = test system: OP9 cells; test: Viability of OP9 stromal cells exposed to EC-7072; assay type: cell-based; details: exposure to EC-7072 for 24 hours
[2] = test system: active caspase-3; test: Caspase-3 activity assay in leukemia cells (flow cytometry); assay type: cell-based, human; details: 0 - 400 nM, 24 hours; leukemia cells in PBMCs from patients with CLL (n = 6)
Method: Intracellular levels of activated caspase-3 were measured by using CaspGLOW™ Fluorescein Active Caspase-3 Staining Kit (Invitrogen). In brief, EC-7072 (200 nM) or DMSO-treated PBMCs from patients with CLL were incubated with FITC-DEVD-fmk for 30 minutes at 37 °c and fluorescence was next analyzed by flow cytometry in leukemia cells. For some experiments, cells were pretreated for 2 hours with the indicated doses of the broad-spectrum caspase inhibitor Z-VAD-fmk.
The induction of caspase-dependent apoptosis on primary CLL cells by EC-7072 was assessed by: • (i) incubating PBMCs isolated from patients with CLL (n = 6) following treatment with increasing concentrations of EC-7072 (0 - 400 nM) for 24 hours. Apoptosis of leukemia cells was evaluated by cytofluorometric assessment of Annexin V/PI staining to obtain percentages of apoptotic [Annexin V^+ PI^-] and dead [PI^+] cells (Figure 3A); • (ii) incubating PBMCs and T cells isolated from patients with CLL (n = 3) following treatment with EC-7072 (200 nM) for 24 hours. T cell apoptosis was evaluated by cytofluorometric assessment of Annexin V/PI staining to obtain percentages of viable [Annexin V-], apoptotic [Annexin V^+ PI^-] and dead [PI^+] cells (Figure 3B); • (iii) incubating PBMCs isolated from patients with CLL (n = 6) following treatment with EC-7072 (0 - 400 nM) for 24 hours. […]

[3] = test system: MEC-1, GRANTA-519, Z-138, JVM-2, CA-46, Ramos, Raji and U266 cell lines; test: Viability of B-cell malignancy cell lines by DiOC6(3)/PI staining; assay type: cell-based; details: 500 nM, 24 hours; n = 3; Figure 5C
Method: Cell viability and apoptosis were evaluated by double-staining with the mitochondrial inner transmembrane potential (ΔΨm)-sensitive dye DiOC6(3) (3,3'-dihexyloxacarbocyanine iodide; Sigma-Aldrich) and the exclusion dye propidium iodide (PI; Immunostep), allowing identification of apoptotic [DiOC6(3)^low PI^-] and dead [PI^+] cells as per Proc. Natl. Acad. Sci. U.S.A. (2014) 111(8):3020-3025 and Methods Mol. Biol. (2016) 1419:1-16. Briefly, PBMCs were resuspended in culture medium containing 20 nM DiOC6(3) and incubated for 30 minutes at 37 °C. Then, PI (1 µg/mL) was added and cells were further incubated for 10 minutes at room temperature (RT). Cells were analyzed by flow cytometry considering DiOC6(3)^+PI^- cells as viable. In some experiments, apoptosis was evaluated by staining with Annexin V/PI. […]
Effectiveness of EC-7072 against different B-cell malignancies was assessed by; • (i) incubating primary fibroblasts from healthy donors (n = 4) and HK-2 cells from healthy human adult kidney (n = 3) following treatment with MTA (200 nM) or EC-7072 (200 nM) for 24 hours. […] Cell viability was assessed by DiOC6(3)/PI staining and normalized to control (DMSO) condition to obtain mean percentage of viable [DiOC6(3)^+] cells (Figure 5C).

CO[C@@H]([C@@H]1Cc2cc3cc(O[C@H]4C[C@@H](O[C@H]5C[C@@H](O)[C@H](O)[C@@H](C)O5)[C@H](O)[C@@H](C)O4)c(C)c(O)c3c(O)c2C(=O)[C@H]1O[C@H]1C[C@@H](O[C@H]2C[C@@H](O[C@H]3C[C@](C)(O)[C@H](O)[C@@H](C)O3)[C@@H](O)[C@@H](C)O2)[C@H](O)[C@@H](C)O1)[C@@H](O)C(C)=O [EC-7072, mithramycin SK]
viability of OP9 cells [1]: did not affect their viability
intracellular levels of active caspase-3 [2]: dose-dependent increase
surviving cell fraction of tumor cell lines derived from B-cell hematologic malignancies [3]: significantly reduced the surviving cell fraction
